Among the data in ChEMBL document CHEMBL4152199, “Discovery of 6-chloro-2-(propylthio)-8,9-dihydro-7H-purines containing a carboxamide moiety as potential selective anti-lung cancer agents” (Eur J Med Chem, 2018) are IC50, Activity and selectivity ratio values, retold here.

SMILES strings stand for the structures. Calls of active or inactive are those of the source. The rule behind the calls is not given here. A value given as a limit tells only on which side of the number the result lay.

Series [1] deals with A549. Briefly: Antiproliferative activity against human A549 cells after 72 hrs by MTT assay. In kind it is functional, cell-based. Conditions: A549, 72 h.
Another series relates to MGC-803. Briefly: Antiproliferative activity against human MGC803 cells after 72 hrs by MTT assay. The note with it: MGC-803, 72 h. Format: functional, cell-based.
The subject of a further series is PC-3. Briefly: Antiproliferative activity against human PC3 cells after 72 hrs by MTT assay. Format: functional, cell-based. Conditions: PC-3, 72 h.
The next series has as its system TE-1. Briefly: Antiproliferative activity against human TE1 cells after 72 hrs by MTT assay. Format: functional, cell-based. Conditions: TE-1, 72 h.
The subject of a further series is GES1. Nature of the series: Antiproliferative activity against human GES-1 cells after 72 hrs by MTT assay. In kind it is cell-based. The note with it: GES1, 72 h.
For series [2], the system named is A549. Briefly: Antimigratory activity in human A549 cells after 72 hrs by inverted microscopic based wound healing assay. In kind it is functional, cell-based.
Series [3] can be described thus: Selectivity index, ratio of IC50 for human GES-1 cells to IC50 for human A549 cells. In kind it is toxicity. The note with it: GES-1 cells versus A549 cells, read-out: Ratio IC50.
Series [4] has as its system A549. Nature of the series: Anticlonogenic activity against human A549 cells at 1 uM after 10 days by crystal violet staining based assay relative to control. In kind it is functional.
Series [5] relates to A549. Nature of the series: Anticlonogenic activity against human A549 cells after 10 days by crystal violet staining based assay. Format: functional, cell-based.
For series [6], the system named is A549. Briefly: Induction of apoptosis in human A549 cells assessed as induction of apoptotic bodies at 2 uM after 72 hrs by Hoechst 33258 staining based fluorescence microscopic method. Format: functional, cell-based.
Series [7] relates to A549. Briefly: Induction of apoptosis in human A549 cells assessed as cell rounding at 2 uM after 72 hrs by Hoechst 33258 staining based fluorescence microscopic method. In kind it is functional.
Series [8] relates to A549. Briefly: Induction of apoptosis in human A549 cells assessed as chromatin shrinkage at 2 uM after 72 hrs by Hoechst 33258 staining based fluorescence microscopic method. In kind it is functional, cell-based.
The subject of series [9] is A549. Briefly: Induction of apoptosis in human A549 cells after 72 hrs by Annexin-V-FITC/propidium iodide staining based flow cytometric analysis. Format: functional, cell-based.
For series [10], the system named is A549. Nature of the series: Induction of apoptosis in human A549 cells assessed as reduction in Bcl-2 level up to 2 uM after 72 hrs by Western blot analysis. In kind it is functional, cell-based.
For series [11], the system named is A549. Briefly: Induction of apoptosis in human A549 cells assessed as increase in Bax level up to 2 uM after 72 hrs by Western blot analysis. Format: functional, cell-based.
The test system of series [12] is A549. Briefly: Antimigratory activity in human A549 cells after 72 hrs by Hoechst 33258 staining based transwell assay. In kind it is functional, cell-based.
In series [13] the test system is A549. Briefly: Antiinvasive activity in human A549 cells after 72 hrs by Hoechst 33258 staining based matrigel assay. In kind it is functional, cell-based.
The test system of series [14] is A549. Nature of the series: Up regulation of E-cadherin expression in human A549 cells up to 2 uM after 72 hrs by Western blot analysis. Format: functional, cell-based.
The test system of series [15] is A549. Nature of the series: Downregulation of N-cadherin expression in human A549 cells up to 2 uM after 72 hrs by Western blot analysis. In kind it is functional, cell-based.
The test system of series [16] is A549. Briefly: Downregulation of vimentin expression in human A549 cells up to 2 uM after 72 hrs by Western blot analysis. In kind it is functional, cell-based.

For `CCCSc1nc(Cl)c2c(n1)N(Cc1ccccc1)C(C(=O)NCCNC(=O)OC(C)(C)C)N2` (configuration not stated), the IC50 in the series with A549 [1] was 53.2 µM; in the series on MGC-803 it was more than 64 µM; in the series with PC-3, 29.7 µM; with TE-1 it was more than 64 µM.
Consider `CCCSc1nc(Cl)c2c(n1)N(CCOC)C(C(=O)N1CCN(C)CC1)N2` (configuration not stated), for which the half-inhibitory concentration (IC50) with A549 [1] was 61.8 µM; with MGC-803 it was more than 64 µM; with PC-3 it was 62.7 µM; with TE-1 it was more than 64 µM.
As for `CCCSc1nc(Cl)c2c(n1)N(Cc1ccccc1)C(C(=O)OCC)N2` (configuration not stated), the 50% inhibitory concentration (IC50) was 13.8 µM with A549 [1], 18.5 µM in the series on MGC-803, 62.5 µM with PC-3 and more than 64 µM in the series on TE-1.
On the same counts, the results for `CCCSc1nc(Cl)c2c(n1)N(Cc1ccccc1)C(C(=O)O)N2` (configuration not stated) are 10.7 µM, more than 64 µM, 49.2 µM and more than 64 µM.
On the same counts, the results for `CCCSc1nc(Cl)c2c(n1)N(Cc1ccccc1)C(C(=O)NCCc1ccccc1)N2` (configuration not stated) are 36.7 µM, 46.9 µM, 41.3 µM and 31.2 µM.
In the same order, the values of `CCCSc1nc(Cl)c2c(n1)N(Cc1ccccc1)C(C(=O)NCCc1c[nH]c3ccccc13)N2` (configuration not stated) are 48.8 µM, 27 µM, more than 64 µM and 30 µM.
Regarding `O=c1[nH]cc(F)c(=O)[nH]1` [FLUOROURACIL], the IC50 is 13.2 µM in the series with A549 [1]; 8.66 µM in the series with MGC-803; 12.3 µM in the series on PC-3; 16.5 µM in the series on TE-1; 12.5 µM in the series on GES1.
For the molecule `CCCSc1nc(Cl)c2c(n1)N(Cc1ccccc1)C(C(=O)N1CCN(C)CC1)N2` (configuration not stated), the Activity result in the series on A549 [2] is “Dose-dependent effect”; in the series with A549 [4] it was 57%; in the series with A549 [5], “Dose-dependent effect”; in the series with A549 [9], “Dose-dependent effect”; with A549 [12], “Dose-dependent effect”; in the series on A549 [13], “Dose-dependent effect”. Besides, the IC50 with A549 [1] was 2.8 µM; in the series on MGC-803 it was more than 64 µM; with PC-3, 29.8 µM; with TE-1, 42.5 µM; in the series with GES1 it was 303 µM. The selectivity ratio in series [3] came out at 108. The outcome in the series on A549 [6], with A549 [7], in the series on A549 [8], with A549 [10], with A549 [11] and in the series with A549 [14] was Active. For the same molecule, the outcome with A549 [15] and with A549 [16] was Active.
As to `CCCSc1nc(Cl)c2c(n1)N(Cc1ccccc1)C(C(=O)N1CCN(Cc3ccccc3)CC1)N2` (configuration not stated), the IC50 came to 14.4 µM in the series with A549 [1], 51.2 µM with MGC-803, 57.3 µM in the series with PC-3 and 48.2 µM in the series on TE-1.
In the same order, the values of `CCCSc1nc(Cl)c2c(n1)N(Cc1ccccc1)C(C(=O)N1CCOCC1)N2` (configuration not stated) are more than 64 µM, 30.2 µM, 53.9 µM and 43.7 µM.
In the same order, the values of `CCCSc1nc(Cl)c2c(n1)N(CCNC(=O)OC(C)(C)C)C(C(=O)N1CCN(C)CC1)N2` (configuration not stated) are 12.4 µM, 59.3 µM, more than 64 µM and 51.8 µM.
Take `CCCSc1nc(Cl)c2c(n1)N(CC1CCCCC1)C(C(=O)N1CCN(C)CC1)N2` (configuration not stated): the IC50 was 13.2 µM in the series with A549 [1], more than 64 µM in the series with MGC-803, 12.8 µM in the series with PC-3 and more than 64 µM in the series on TE-1.
In the case of `CCCSc1nc(Cl)c2c(n1)N(Cc1ccccc1)C(C(=O)NCCCc1ccccc1)N2` (configuration not stated), the IC50 with A549 [1] stood at 9.43 µM; with MGC-803, 16.9 µM; in the series on PC-3, 12.7 µM; with TE-1 it was 22.9 µM.
In the same order, the values of `CCCSc1nc(Cl)c2c(n1)N(Cc1ccccc1)C(C(=O)N1CCN(C(=O)OC(C)(C)C)CC1)N2` (configuration not stated) are 29 µM, 32 µM, 47.1 µM and 31.2 µM.
In the same order, the values of `CCCSc1nc(Cl)c2c(n1)N(Cc1cccs1)C(C(=O)N1CCN(C)CC1)N2` (configuration not stated) are 6.42 µM, 62.3 µM, 5.02 µM and 39.4 µM.
In the same order, the values of `CCCSc1nc(Cl)c2c(n1)N(Cc1ccccc1)C(C(=O)N1CCSCC1)N2` (configuration not stated) are more than 64 µM, 31.3 µM, 47.9 µM and 47.8 µM.
Regarding `CCCSc1nc(Cl)c2c(n1)N(Cc1ccccc1)C(C(=O)Nc1ccccc1)N2` (configuration not stated), the IC50 is 50.2 µM with A549 [1], 58.4 µM with MGC-803, more than 64 µM in the series with PC-3 and more than 64 µM in the series with TE-1.
With `CCCSc1nc(Cl)c2c(n1)N(Cc1ccco1)C(C(=O)N1CCN(C)CC1)N2` (configuration not stated), the IC50 in the series with A549 [1] stood at 13.6 µM; with MGC-803, 53.8 µM; with PC-3, 11.3 µM; with TE-1, 35 µM.
For the molecule `CCCSc1nc(Cl)c2c(n1)N(Cc1ccccc1)C(C(=O)NCC(C)C)N2` (configuration not stated), the IC50 is 48.2 µM in the series on A549 [1], 58.4 µM in the series on MGC-803, more than 64 µM in the series on PC-3 and 46.6 µM with TE-1.
In the same order, the values of `CCCSc1nc(Cl)c2c(n1)N(Cc1ccccc1)C(C(=O)NCCCN1CCOCC1)N2` (configuration not stated) are 42.2 µM, more than 64 µM, 45.1 µM and 51.1 µM.
